The values below come from patent US20260234208A1, “METHOD FOR PRODUCING A KERATIN POWDER FROM FEATHERS OF ANIMAL ORIGIN, COLLOIDAL SOLUTION AND KERATIN POWDER FOR TOPICAL APPLICATION CONTAINING KERATIN PARTICLES, AND USE OF THE COLLOIDAL SOLUTION AND THE KERATIN POWDER” (RIGI THERAPEUTICS AG, priority 2023, published 2026).

The data set is described as follows: Water release in climate chamber. It counts as physicochemical. As to conditions: room temperature, humidity 50%. The method, then: When urea was added, up to a ratio of 5% keratin to 95% urea, the maximum was reached increasingly later, in the maximum case only after 15 days. In this case, the water absorption capacity was 197%. (FIG. 13). The water release was determined at room temperature and a humidity of 50%. […] For the mixtures of keratin and urea in the ratios 25:75 and 10:[…], a water content of 25% was still observed even after 4 days (FIG. 14).

Take `NC(N)=O` [urea]: the “Time to complete water release” value amounted to 4 days and the “Water release within the first 24 hours” value is given as “around 170%”.
